Assay results as given in ChEMBL document CHEMBL1201862, “PubChem BioAssay data set” (2004).
The source made the active and inactive calls.

How the values were obtained:
[1] = C. albicans growth with fluconazole, confirmation, fluorescence, retest (AID 2467); assay type: functional, cell-based
[2] = biological target: ATP-dependent molecular chaperone HSP82 (Candida albicans (strain WO-1) (Yeast), UniProt C4YTQ8); experiment: loss of DOC-induced GRE-beta-galactosidase reporter signal, dose response, Hsp90 inhibitor project, S. cerevisiae, luminescence (AID 2400); assay type: functional, cell-based;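 note: beta-galactosidase luminescence from glucocorticoid response element reporter as proxy for Hsp90 function; inhibitor potency where signal loss means Hsp90 inhibition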
H9c2 = experiment: cells; assay type: functional, cell-based; conditions: Rattus norvegicus, H9c2, Myocardium;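 note: confirmatory concentration-response retest of ultra-high-throughput screening hits for modulation of myocardial damage; cell death induced by hydrogen peroxide oxidative stress; compound pretreatment for 60 min then peroxide exposure for 2 h; potency is for protecting the cells against peroxide damage rather than for killing them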
[3] = cytotoxicity toward DRD oncogenic fibroblasts, dose response, cell-based, non-viral oncogenic, luminescence (AID 1934); assay type: functional; conditions: Homo sapiens
[4] = biological target: T1, Serine/threonine-protein phosphatase (Candida dubliniensis (strain CD36 / CBS 7987 / NCPF 3949 / NRRLY-17841) (Yeast), UniProt B9W6M3); experiment: Fluorescence Cell-Based Secondary Assay to Identify Inhibitors of Calcineurin. [Related pubchem assays (depositor defined):AID1979, AID2007]; assay type: functional
T1 sequence (B9W6M3 whole entry): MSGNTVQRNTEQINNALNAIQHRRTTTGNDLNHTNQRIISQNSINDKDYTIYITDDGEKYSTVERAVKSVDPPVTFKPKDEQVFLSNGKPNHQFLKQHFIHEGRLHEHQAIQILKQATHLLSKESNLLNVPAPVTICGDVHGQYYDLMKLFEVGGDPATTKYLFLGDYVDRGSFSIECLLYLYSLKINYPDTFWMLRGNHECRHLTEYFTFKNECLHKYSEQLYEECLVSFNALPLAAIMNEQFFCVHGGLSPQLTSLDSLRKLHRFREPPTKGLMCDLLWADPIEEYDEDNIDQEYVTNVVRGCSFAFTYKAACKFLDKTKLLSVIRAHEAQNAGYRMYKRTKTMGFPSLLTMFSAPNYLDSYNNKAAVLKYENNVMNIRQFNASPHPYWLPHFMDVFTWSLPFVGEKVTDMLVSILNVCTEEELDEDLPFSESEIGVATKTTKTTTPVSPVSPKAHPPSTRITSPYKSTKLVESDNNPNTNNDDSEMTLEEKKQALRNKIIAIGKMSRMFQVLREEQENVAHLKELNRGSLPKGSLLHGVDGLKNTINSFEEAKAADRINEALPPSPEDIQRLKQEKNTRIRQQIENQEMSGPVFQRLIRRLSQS

[5] = biological target: Phosphorylase b kinase gamma catalytic chain, liver/testis isoform (Homo sapiens, UniProt P15735); assay type: functional;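 note: PHKG2 measured as one member of a kinome-wide kinase panel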
[6] = biological target: Mitogen-activated protein kinase kinase kinase kinase 2 (Homo sapiens, UniProt Q12851); assay type: functional;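 note: measured as one member of a kinome-wide kinase panel, with MAP4K2 as the panel entry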
[7] = biological target: Mitogen-activated protein kinase kinase kinase kinase 5 (Homo sapiens, UniProt Q9Y4K4); assay type: functional;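 note: measured as one member of a kinome-spanning kinase panel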
[8] = biological target: Serine/threonine-protein kinase PLK1 (Homo sapiens, UniProt P53350); assay type: functional;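 note: PLK1 measured as one member of a kinome-wide profiling panel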
[9] = biological target: Casein kinase I isoform delta (Homo sapiens, UniProt P48730); assay type: functional;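 note: measured as one member (CSNK1D) of a kinome panel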
[10] = biological target: Death-associated protein kinase 3 (Homo sapiens, UniProt O43293); assay type: functional;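 note: measured as one member of a kinome-wide profiling panel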
[11] = biological target: Mitogen-activated protein kinase 12 (Homo sapiens, UniProt P53778); assay type: functional;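 note: measured as one member of a kinome-wide kinase profiling panel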
[12] = biological target: Serine/threonine-protein kinase PAK 1 (Homo sapiens, UniProt Q13153); assay type: functional
[13] = biological target: Testis-specific serine/threonine-protein kinase 2 (Homo sapiens, UniProt Q96PF2); assay type: functional;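 note: part of the Navigating the Kinome panel, target entry STK22B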
[14] = biological target: Receptor-type tyrosine-protein kinase FLT3 (Homo sapiens, UniProt P36888); assay type: functional;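 note: FLT3 was tested as one member of a kinome-wide kinase panel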
[15] = biological target: Fibroblast growth factor receptor 1 (Homo sapiens, UniProt P11362); assay type: functional
[16] = biological target: cAMP-dependent protein kinase catalytic subunit PRKX (Homo sapiens, UniProt P51817); assay type: functional
[17] = biological target: Dual specificity protein kinase CLK2 (Homo sapiens, UniProt P49760); assay type: functional
[18] = biological target: Serine/threonine-protein kinase 17A (Homo sapiens, UniProt Q9UEE5); assay type: functional
[19] = biological target: Vascular endothelial growth factor receptor 3 (Homo sapiens, UniProt P35916); assay type: functional;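 note: value from a kinome-wide profiling panel, with FLT4 as the panel member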
Ephrin type-A receptor 2 = Ephrin type-A receptor 2 (Homo sapiens, UniProt P29317); assay type: functional;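 note: EPHA2 tested as one member of a kinome-wide kinase panel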
[20] = biological target: Glycogen synthase kinase-3 beta (Homo sapiens, UniProt P49841); assay type: functional;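 note: value comes from a broad kinome profiling panel, with GSK3B as the panel member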
[21] = biological target: Serine/threonine-protein kinase PAK 4 (Homo sapiens, UniProt O96013); assay type: functional;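 note: value obtained within a kinome profiling panel in which PAK4 was one of the panel members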
[22] = biological target: Proto-oncogene tyrosine-protein kinase ROS (Homo sapiens, UniProt P08922); assay type: functional;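 note: ROS1 tested as one member of a kinome-wide kinase panel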
[23] = biological target: cAMP-dependent protein kinase catalytic subunit alpha (Homo sapiens, UniProt P17612); assay type: functional
[24] = biological target: Dual specificity tyrosine-phosphorylation-regulated kinase 4 (Homo sapiens, UniProt Q9NR20); assay type: functional
[25] = biological target: Protein kinase C gamma type (Homo sapiens, UniProt P05129); assay type: functional
[26] = biological target: Receptor tyrosine-protein kinase erbB-2 (Homo sapiens, UniProt P04626); experiment: Navigating the Kinome. Panel member name: ERBB2; assay type: functional
[27] = biological target: Serine/threonine-protein kinase PLK4 (Homo sapiens, UniProt O00444); assay type: functional;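 note: PLK4 measured as one member of a kinome-wide kinase profiling panel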
[28] = biological target: STE20-like serine/threonine-protein kinase (Homo sapiens, UniProt Q9H2G2); assay type: functional
[29] = biological target: Tyrosine-protein kinase SYK (Homo sapiens, UniProt P43405); assay type: functional
[30] = biological target: Calcium/calmodulin-dependent protein kinase type II subunit beta (Homo sapiens, UniProt Q13554); assay type: functional
[31] = biological target: Tyrosine-protein kinase Fyn (Homo sapiens, UniProt P06241); assay type: functional
[32] = biological target: Serine/threonine-protein kinase pim-3 (Homo sapiens, UniProt Q86V86); assay type: functional;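 note: value obtained as one member of a broad kinase panel profiling effort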
[33] = biological target: Protein kinase C iota type (Homo sapiens, UniProt P41743); assay type: functional;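 note: measured within a kinome-wide kinase panel, PRKCI as panel member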
[34] = biological target: Serine/threonine-protein kinase DCLK1 (Homo sapiens, UniProt O15075); assay type: functional;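 note: affinity for DCLK1 (listed as DCAMKL1) measured as one member of a kinome-wide kinase profiling panel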
[35] = biological target: MAP kinase-activated protein kinase 2 (Homo sapiens, UniProt P49137); assay type: functional;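 note: measured as one member of a kinome-wide kinase panel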
Sequence of MAP kinase-activated protein kinase 2 (P49137 whole entry): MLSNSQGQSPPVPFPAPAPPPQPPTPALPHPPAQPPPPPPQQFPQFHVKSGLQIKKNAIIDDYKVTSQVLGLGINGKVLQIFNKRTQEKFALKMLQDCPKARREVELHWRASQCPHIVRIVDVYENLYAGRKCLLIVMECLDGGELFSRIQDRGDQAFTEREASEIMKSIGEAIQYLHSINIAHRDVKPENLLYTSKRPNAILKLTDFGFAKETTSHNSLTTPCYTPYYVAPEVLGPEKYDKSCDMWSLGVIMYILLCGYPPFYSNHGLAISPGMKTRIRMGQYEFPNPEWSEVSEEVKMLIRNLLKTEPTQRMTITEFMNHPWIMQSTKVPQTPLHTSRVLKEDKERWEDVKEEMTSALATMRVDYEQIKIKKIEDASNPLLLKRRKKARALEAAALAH

Sequence of Serine/threonine-protein kinase PLK1 (P53350 whole entry, canonical isoform): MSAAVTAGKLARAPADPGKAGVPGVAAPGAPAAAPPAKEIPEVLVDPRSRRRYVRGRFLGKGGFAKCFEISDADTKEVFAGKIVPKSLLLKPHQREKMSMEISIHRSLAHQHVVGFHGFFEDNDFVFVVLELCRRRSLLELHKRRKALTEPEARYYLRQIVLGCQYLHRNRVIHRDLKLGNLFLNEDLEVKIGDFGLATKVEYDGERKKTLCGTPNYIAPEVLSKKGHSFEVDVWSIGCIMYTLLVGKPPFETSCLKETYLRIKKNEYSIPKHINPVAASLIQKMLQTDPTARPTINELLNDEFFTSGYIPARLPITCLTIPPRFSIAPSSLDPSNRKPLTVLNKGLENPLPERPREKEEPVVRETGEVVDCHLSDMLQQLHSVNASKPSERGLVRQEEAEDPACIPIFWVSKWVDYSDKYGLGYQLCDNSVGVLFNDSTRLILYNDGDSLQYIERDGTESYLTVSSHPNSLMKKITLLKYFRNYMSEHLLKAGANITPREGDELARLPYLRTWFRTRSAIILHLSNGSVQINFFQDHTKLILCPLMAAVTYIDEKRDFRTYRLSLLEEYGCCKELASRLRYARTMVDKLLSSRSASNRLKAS
Sequence of Ephrin type-A receptor 2 (P29317 whole entry): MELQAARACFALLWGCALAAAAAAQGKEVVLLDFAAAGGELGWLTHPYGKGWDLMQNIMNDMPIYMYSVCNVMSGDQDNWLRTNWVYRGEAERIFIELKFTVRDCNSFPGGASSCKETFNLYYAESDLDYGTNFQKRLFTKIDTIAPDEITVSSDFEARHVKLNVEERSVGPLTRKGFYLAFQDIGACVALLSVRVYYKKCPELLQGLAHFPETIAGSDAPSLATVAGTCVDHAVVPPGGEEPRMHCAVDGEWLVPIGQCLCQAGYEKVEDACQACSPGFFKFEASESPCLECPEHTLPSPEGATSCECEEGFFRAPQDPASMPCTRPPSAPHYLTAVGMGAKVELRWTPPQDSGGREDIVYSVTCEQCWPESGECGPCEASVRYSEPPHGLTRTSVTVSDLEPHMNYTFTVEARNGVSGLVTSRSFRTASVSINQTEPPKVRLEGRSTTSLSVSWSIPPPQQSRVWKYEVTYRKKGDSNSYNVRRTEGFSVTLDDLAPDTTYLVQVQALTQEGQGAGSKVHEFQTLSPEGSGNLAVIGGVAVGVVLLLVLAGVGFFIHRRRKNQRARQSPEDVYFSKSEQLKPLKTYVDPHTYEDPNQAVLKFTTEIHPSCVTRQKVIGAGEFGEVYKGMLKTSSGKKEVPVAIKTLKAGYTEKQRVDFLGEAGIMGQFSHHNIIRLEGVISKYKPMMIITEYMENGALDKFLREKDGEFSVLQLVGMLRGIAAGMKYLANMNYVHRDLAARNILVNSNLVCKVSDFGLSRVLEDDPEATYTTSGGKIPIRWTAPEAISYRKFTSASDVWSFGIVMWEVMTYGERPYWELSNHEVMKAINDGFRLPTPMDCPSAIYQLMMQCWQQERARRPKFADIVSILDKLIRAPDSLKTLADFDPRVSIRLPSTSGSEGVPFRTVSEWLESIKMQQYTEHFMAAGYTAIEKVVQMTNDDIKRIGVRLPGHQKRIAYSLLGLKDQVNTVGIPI
Sequence of Glycogen synthase kinase-3 beta (P49841 whole entry): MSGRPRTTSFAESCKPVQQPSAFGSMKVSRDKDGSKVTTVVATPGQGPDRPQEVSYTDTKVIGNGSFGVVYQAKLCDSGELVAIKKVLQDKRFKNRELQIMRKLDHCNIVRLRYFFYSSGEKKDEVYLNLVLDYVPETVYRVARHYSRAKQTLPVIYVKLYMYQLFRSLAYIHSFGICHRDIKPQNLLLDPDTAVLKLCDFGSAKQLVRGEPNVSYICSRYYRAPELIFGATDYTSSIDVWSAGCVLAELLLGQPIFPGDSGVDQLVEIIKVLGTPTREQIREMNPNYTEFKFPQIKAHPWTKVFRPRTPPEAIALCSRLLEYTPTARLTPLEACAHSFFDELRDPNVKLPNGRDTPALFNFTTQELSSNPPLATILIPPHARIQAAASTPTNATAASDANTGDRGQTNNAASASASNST
Sequence of Testis-specific serine/threonine-protein kinase 2 (Q96PF2 whole entry): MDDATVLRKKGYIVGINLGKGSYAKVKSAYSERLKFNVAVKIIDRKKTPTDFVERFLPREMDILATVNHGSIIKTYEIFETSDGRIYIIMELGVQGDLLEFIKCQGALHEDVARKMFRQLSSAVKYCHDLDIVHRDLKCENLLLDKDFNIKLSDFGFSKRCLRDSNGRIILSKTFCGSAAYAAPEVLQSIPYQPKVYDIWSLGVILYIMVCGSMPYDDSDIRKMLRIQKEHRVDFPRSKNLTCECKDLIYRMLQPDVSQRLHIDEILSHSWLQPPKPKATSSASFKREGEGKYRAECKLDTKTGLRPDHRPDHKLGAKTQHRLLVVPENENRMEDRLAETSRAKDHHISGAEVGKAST
Sequence of Fibroblast growth factor receptor 1 (P11362 whole entry): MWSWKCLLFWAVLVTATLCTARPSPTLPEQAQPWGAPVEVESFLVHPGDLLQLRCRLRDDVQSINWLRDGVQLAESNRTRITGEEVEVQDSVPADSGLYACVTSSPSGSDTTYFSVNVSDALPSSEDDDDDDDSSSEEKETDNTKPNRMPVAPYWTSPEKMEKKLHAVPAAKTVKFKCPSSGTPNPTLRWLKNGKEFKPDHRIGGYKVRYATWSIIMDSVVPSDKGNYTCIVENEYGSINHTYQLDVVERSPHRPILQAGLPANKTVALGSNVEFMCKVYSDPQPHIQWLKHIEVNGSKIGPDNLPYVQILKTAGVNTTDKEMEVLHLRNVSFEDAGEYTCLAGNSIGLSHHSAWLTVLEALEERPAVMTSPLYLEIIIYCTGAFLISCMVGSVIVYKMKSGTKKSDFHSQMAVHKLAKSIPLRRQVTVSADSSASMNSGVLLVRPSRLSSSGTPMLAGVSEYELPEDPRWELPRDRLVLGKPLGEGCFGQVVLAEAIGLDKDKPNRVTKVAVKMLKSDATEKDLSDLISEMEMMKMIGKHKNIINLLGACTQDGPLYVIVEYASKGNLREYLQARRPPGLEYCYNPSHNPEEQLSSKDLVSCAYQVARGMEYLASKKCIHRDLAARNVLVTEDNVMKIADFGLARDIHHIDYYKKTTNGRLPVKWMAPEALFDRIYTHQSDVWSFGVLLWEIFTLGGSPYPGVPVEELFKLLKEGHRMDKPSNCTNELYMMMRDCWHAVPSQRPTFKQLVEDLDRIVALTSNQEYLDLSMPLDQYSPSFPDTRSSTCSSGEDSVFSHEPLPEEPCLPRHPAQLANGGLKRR
Sequence of ATP-dependent molecular chaperone HSP82 (C4YTQ8 whole entry): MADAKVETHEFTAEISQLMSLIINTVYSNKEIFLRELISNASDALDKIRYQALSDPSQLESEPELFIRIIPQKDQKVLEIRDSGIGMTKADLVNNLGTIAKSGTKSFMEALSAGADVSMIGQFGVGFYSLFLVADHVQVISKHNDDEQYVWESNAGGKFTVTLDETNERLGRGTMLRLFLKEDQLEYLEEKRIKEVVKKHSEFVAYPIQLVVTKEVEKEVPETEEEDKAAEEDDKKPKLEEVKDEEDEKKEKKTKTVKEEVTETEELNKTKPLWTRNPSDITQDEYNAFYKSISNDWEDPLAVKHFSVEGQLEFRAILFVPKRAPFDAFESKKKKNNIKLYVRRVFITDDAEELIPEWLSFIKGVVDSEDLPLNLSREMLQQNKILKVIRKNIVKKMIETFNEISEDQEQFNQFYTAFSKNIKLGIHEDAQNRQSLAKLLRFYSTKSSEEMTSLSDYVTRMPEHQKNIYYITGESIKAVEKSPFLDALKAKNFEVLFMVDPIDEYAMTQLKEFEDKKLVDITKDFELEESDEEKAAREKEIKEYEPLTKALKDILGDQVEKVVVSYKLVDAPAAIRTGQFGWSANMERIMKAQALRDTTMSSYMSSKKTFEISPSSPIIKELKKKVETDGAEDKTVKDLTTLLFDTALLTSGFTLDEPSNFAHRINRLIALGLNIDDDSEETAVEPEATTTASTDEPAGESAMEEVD
Sequence of Mitogen-activated protein kinase 12 (P53778 whole entry): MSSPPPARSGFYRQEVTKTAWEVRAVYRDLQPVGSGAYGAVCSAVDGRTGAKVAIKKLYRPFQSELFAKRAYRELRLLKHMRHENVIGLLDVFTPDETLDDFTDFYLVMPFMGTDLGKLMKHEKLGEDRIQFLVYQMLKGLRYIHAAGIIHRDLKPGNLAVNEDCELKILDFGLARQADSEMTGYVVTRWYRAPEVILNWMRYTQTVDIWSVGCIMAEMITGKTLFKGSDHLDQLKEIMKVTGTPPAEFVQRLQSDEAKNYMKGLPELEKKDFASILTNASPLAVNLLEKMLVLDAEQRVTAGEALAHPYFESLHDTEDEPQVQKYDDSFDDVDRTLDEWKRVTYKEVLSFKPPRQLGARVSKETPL

COc1ccc(-c2nnc(NC(=O)c3ccc(F)cc3)o2)cc1
inactive: EC50 [2] > 150 µM | IC50 (H9c2) > 79 µM | EC50 [4] > 285 µM
active: EC50 [1] 0.305 µM | EC50 [3] 38.1 µM

CCn1c(-c2nonc2N)nc2cnc(Oc3cccc(NC(=O)c4ccc(OCCN5CCOCC5)cc4)c3)cc21 [GSK-269962A]
active: Ki [7] 1.58 µM | Ki [10] 0.501 µM | Ki [14] 1.58 µM | Ki [16] 0.0501 µM | Ki [18] 0.158 µM | Ki [19] 3.16 µM | Ki [20] 0.0631 µM | Ki [23] 0.0316 µM | Ki [25] 0.251 µM | Ki [27] 0.316 µM | Ki [28] 1.58 µM | Ki [30] 7.94 µM | Ki [32] 1.58 µM | Ki [33] 0.0316 µM
inactive: Ki [5] > 5.01 µM | Ki [6] > 6.31 µM | Ki [8] > 7.94 µM | Ki [9] > 7.94 µM | Ki [11] > 6.31 µM | Ki [12] > 10 µM | Ki [13] > 1.58 µM | Ki [15] > 5.01 µM | Ki [17] > 7.94 µM | Ki (Ephrin type-A receptor 2) > 3.16 µM | Ki [21] > 5.01 µM | Ki [22] > 2 µM | Ki [24] > 7.94 µM | Ki [26] > 1.58 µM | Ki [29] > 1.58 µM | Ki [31] > 0.794 µM | Ki [34] > 10 µM | Ki [35] > 7.94 µM
